We go through eight molecules from US20260001928A1 (CORTERIA PHARMACEUTICALS, priority 2022, published 2026).

For one assay, the system named is human LAD2 cells. Format: cell-based. The procedure, abridged:
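Mast cell degranulation: cells exposed to peptides for 30 min at final concentrations from 50, 100 or 300 down to 0.1 or 0.001 μM, with 0.5% DMSO where used, in biological duplicates. β-hexosaminidase release was read with a fluorogenic 4-methylumbelliferyl substrate as supernatant/(supernatant + Triton-lysed pellet) × 100. EC50 came from a 4-parameter sigmoidal fit.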

Assay [1] deals with Rat CRF2 a (corticotropin-releasing factor receptor 2), on the A7R5 rat aortic smooth muscle cell line (rat, UniProt P47866 20-411). Put plainly: cell-based or functional assay.

*1 amine or outer side, *2 acyl side, *3 side chain or, on linkers, in order; H or OH if unused. Where a SMILES comes first, the peptide text is derived from it. Where no end group is shown, it is not given here. Side-chain parts run from the residue outwards. [ ]: non-standard residue; d: D form. The star is where a group is joined. C20 diacid = O=C(O)CCCCCCCCCCCCCCCCCCC(=O)*; C18 diacid = O=C(O)CCCCCCCCCCCCCCCCC(=O)*; C16 diacid = O=C(O)CCCCCCCCCCCCCCC(=O)*; γGlu = O=C(O)[C@H](CCC(=O)[*:2])N[*:1]; C14 diacid = O=C(O)CCCCCCCCCCCCC(=O)*; NMeI = CC[C@H](C)[C@H](NC)C(=O)O; AEEA = NCCOCCOCC(=O)O; Aib = CC(C)(N)C(=O)O

Chain of Rat CRF2 a (corticotropin-releasing factor receptor 2), on the A7R5 rat aortic smooth muscle cell line (P47866 20-411): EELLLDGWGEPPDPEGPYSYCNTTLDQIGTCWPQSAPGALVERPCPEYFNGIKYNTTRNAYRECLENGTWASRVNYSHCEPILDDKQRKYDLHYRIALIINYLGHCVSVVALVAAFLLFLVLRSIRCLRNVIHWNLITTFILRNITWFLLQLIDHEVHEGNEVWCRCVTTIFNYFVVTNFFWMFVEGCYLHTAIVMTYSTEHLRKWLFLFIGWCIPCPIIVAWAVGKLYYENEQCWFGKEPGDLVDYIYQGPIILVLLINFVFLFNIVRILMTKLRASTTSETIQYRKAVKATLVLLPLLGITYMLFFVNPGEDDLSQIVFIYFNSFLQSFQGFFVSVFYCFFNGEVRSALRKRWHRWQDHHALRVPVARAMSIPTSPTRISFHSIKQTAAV

In the case of `CC[C@H](C)[C@H](NC(C)=O)C(=O)N[C@H](C(=O)N[C@@H](CC(C)C)C(=O)N[C@@H](CO)C(=O)N[C@@H](CC(C)C)C(=O)N[C@@H](CC(=O)O)C(=O)N[C@@H](C(=O)N1CCC[C@H]1C(=O)N[C@H](C(=O)N[C@@H](CCCCN)C(=O)N[C@@H](CC(C)C)C(=O)N[C@@H](CCCCNC(=O)COCCOCCNC(=O)COCCOCCNC(=O)CC[C@H](NC(=O)CCCCCCCCCCCCCCCCCCC(=O)O)C(=O)O)C(=O)N[C@@H](CCCCN)C(=O)N[C@H](C(=O)N[C@@H](CC(C)C)C(=O)N[C@@H](CC(C)C)C(=O)N[C@@H](CCC(=O)O)C(=O)N[C@@H](CCC(N)=O)C(=O)N[C@@H](CCC(=O)O)C(=O)N[C@@H](CCCCN)C(=O)N[C@@H](CCC(N)=O)C(=O)N[C@@H](CCCCN)C(=O)N[C@@H](CCCCN)C(=O)N[C@@H](CCC(N)=O)C(=O)N[C@@H](CCCNC(=N)N)C(=O)N[C@@H](CCC(=O)O)C(=O)N[C@@H](CCC(N)=O)C(=O)N[C@@H](C)C(=O)N[C@@H](CCC(=O)O)C(=O)N[C@H](C(=O)N[C@@H](CC(N)=O)C(=O)NC(C)(C)C(=O)N[C@@H](CCC(N)=O)C(=O)N[C@H](C(=O)N[C@@H](CC(C)C)C(=O)N[C@@H](C)C(=O)N[C@@H](CCC(N)=O)C(=O)N[C@H](C(N)=O)C(C)C)[C@@H](C)CC)[C@@H](C)O)[C@@H](C)CC)[C@@H](C)CC)C(C)C)C(C)C` [Cmpd 238] (Ac-IVLSLD[dV]PIKLK([AEEA-AEEA-γGlu-C20 diacid])KILLEQEKQKKQREQAETN[Aib]QILAQV-NH2), the concentration for a half-maximal effect (EC50) in the assay on human LAD2 cells turned out to be 36.7 µM. This lies in the double-digit micromolar range.

`CC[C@H](C)[C@H](NC(C)=O)C(=O)N[C@H](C(=O)N[C@@H](CC(C)C)C(=O)N[C@@H](CO)C(=O)N[C@@H](CC(C)C)C(=O)N[C@@H](CC(=O)O)C(=O)N[C@@H](C(=O)N1CCC[C@H]1C(=O)N[C@H](C(=O)N[C@@H](CCCCN)C(=O)N[C@@H](CC(C)C)C(=O)N[C@@H](CCCCNC(=O)CC[C@H](NC(=O)CC[C@H](NC(=O)CCCCCCCCCCCCCCCCCCC(=O)O)C(=O)O)C(=O)O)C(=O)N[C@@H](CCCCN)C(=O)N[C@H](C(=O)N[C@@H](CC(C)C)C(=O)N[C@@H](CC(C)C)C(=O)N[C@@H](CCC(=O)O)C(=O)N[C@@H](CCC(N)=O)C(=O)N[C@@H](CCC(=O)O)C(=O)N[C@@H](CCCCN)C(=O)N[C@@H](CCC(N)=O)C(=O)N[C@@H](CCCCN)C(=O)N[C@@H](CCC(=O)O)C(=O)N[C@@H](CCC(N)=O)C(=O)N[C@@H](CCCNC(=N)N)C(=O)N[C@@H](CCC(=O)O)C(=O)N[C@@H](CCC(N)=O)C(=O)N[C@@H](C)C(=O)N[C@@H](CCC(=O)O)C(=O)N[C@H](C(=O)N[C@@H](CC(N)=O)C(=O)NC(C)(C)C(=O)N[C@@H](CCC(N)=O)C(=O)N[C@H](C(=O)N[C@@H](CC(C)C)C(=O)N[C@@H](C)C(=O)N[C@@H](CCC(N)=O)C(=O)N[C@H](C(N)=O)C(C)C)[C@@H](C)CC)[C@@H](C)O)[C@@H](C)CC)[C@@H](C)CC)C(C)C)C(C)C` [Cmpd 241] (Ac-IVLSLD[dV]PIKLK([γGlu-γGlu-C20 diacid])KILLEQEKQKEQREQAETN[Aib]QILAQV-NH2) yielded an EC50 in the assay on human LAD2 cells of more than 300 µM.

In the case of `CC[C@H](C)[C@H](NC)C(=O)N[C@H](C(=O)N[C@@H](CC(C)C)C(=O)N[C@@H](CO)C(=O)N[C@@H](CC(C)C)C(=O)N[C@@H](CC(=O)O)C(=O)N[C@@H](C(=O)N1CCC[C@H]1C(=O)N[C@H](C(=O)N[C@@H](CCCCN)C(=O)N[C@@H](CC(C)C)C(=O)N[C@@H](CCCCNC(=O)CC[C@H](NC(=O)CC[C@H](NC(=O)CCCCCCCCCCCCCCCCCCC(=O)O)C(=O)O)C(=O)O)C(=O)N[C@@H](CCCCN)C(=O)N[C@H](C(=O)N[C@@H](CC(C)C)C(=O)N[C@@H](CC(C)C)C(=O)N[C@@H](CCC(=O)O)C(=O)N[C@@H](CCC(N)=O)C(=O)N[C@@H](CCC(=O)O)C(=O)N[C@@H](CCCCN)C(=O)N[C@@H](CCC(N)=O)C(=O)N[C@@H](CCCCN)C(=O)N[C@@H](CCC(=O)O)C(=O)N[C@@H](CCC(N)=O)C(=O)N[C@@H](CCCNC(=N)N)C(=O)N[C@@H](CCC(=O)O)C(=O)N[C@@H](CCC(N)=O)C(=O)N[C@@H](C)C(=O)N[C@@H](CCC(=O)O)C(=O)N[C@H](C(=O)N[C@@H](CC(N)=O)C(=O)NC(C)(C)C(=O)N[C@@H](CCC(N)=O)C(=O)N[C@H](C(=O)N[C@@H](CC(C)C)C(=O)N[C@@H](C)C(=O)N[C@@H](CCC(N)=O)C(=O)N[C@H](C(N)=O)C(C)C)[C@@H](C)CC)[C@@H](C)O)[C@@H](C)CC)[C@@H](C)CC)C(C)C)C(C)C` [Cmpd 242] (H-[NMeI]VLSLD[dV]PIKLK([γGlu-γGlu-C20 diacid])KILLEQEKQKEQREQAETN[Aib]QILAQV-NH2), the EC50 in the assay with human LAD2 cells was more than 300 µM.

As for `CC[C@H](C)[C@H](NC(C)=O)C(=O)N[C@H](C(=O)N[C@@H](CC(C)C)C(=O)N[C@@H](CO)C(=O)N[C@@H](CC(C)C)C(=O)N[C@@H](CC(=O)O)C(=O)N[C@@H](C(=O)N1CCC[C@H]1C(=O)N[C@H](C(=O)N[C@@H](CCCCN)C(=O)N[C@@H](CC(C)C)C(=O)N[C@@H](CCCCNC(=O)CC[C@H](NC(=O)CC[C@H](NC(=O)CCCCCCCCCCCCCCCCCCC(=O)O)C(=O)O)C(=O)O)C(=O)N[C@@H](CCCCN)C(=O)N[C@H](C(=O)N[C@@H](CC(C)C)C(=O)N[C@@H](CC(C)C)C(=O)N[C@@H](CCC(=O)O)C(=O)N[C@@H](CCC(N)=O)C(=O)N[C@@H](CCC(=O)O)C(=O)N[C@@H](CCCCN)C(=O)N[C@@H](CCC(N)=O)C(=O)N[C@@H](CCCCN)C(=O)N[C@@H](CCCCN)C(=O)N[C@@H](CCC(N)=O)C(=O)N[C@@H](CCCNC(=N)N)C(=O)N[C@@H](CCC(=O)O)C(=O)N[C@@H](CCC(N)=O)C(=O)N[C@@H](C)C(=O)N[C@@H](CCC(=O)O)C(=O)N[C@H](C(=O)N[C@@H](CC(N)=O)C(=O)NC(C)(C)C(=O)N[C@@H](CCC(N)=O)C(=O)N[C@H](C(=O)N[C@@H](CC(C)C)C(=O)N[C@@H](C)C(=O)N[C@@H](CCC(N)=O)C(=O)N[C@H](C(N)=O)C(C)C)[C@@H](C)CC)[C@@H](C)O)[C@@H](C)CC)[C@@H](C)CC)C(C)C)C(C)C` [Cmpd 243] (Ac-IVLSLD[dV]PIKLK([γGlu-γGlu-C20 diacid])KILLEQEKQKKQREQAETN[Aib]QILAQV-NH2), the 50% effective concentration (EC50) in the assay on human LAD2 cells is more than 300 µM.

For `NC(N)=NCCC[C@@H](N)C(=O)N[C@@H](CCCN=C(N)N)C(=O)N1CCC[C@H]1C(=O)N1C[C@H](O)C[C@H]1C(=O)NCC(=O)N[C@@H](Cc1cccs1)C(=O)N[C@@H](CO)C(=O)N1Cc2ccccc2C[C@@H]1C(=O)N1[C@H](C(=O)N[C@@H](CCCN=C(N)N)C(=O)O)C[C@@H]2CCCC[C@@H]21` [Icatibant, reference compound], the EC50 in the assay with human LAD2 cells is 16.4 µM.

For the molecule Ac-IVLSLD[dV]PIKLK([γGlu-C14 diacid])KILLEQEKQKKQREQAETNEQILAQV-NH2 [comparative peptide 11 (SEQ ID NO: 85)], in assay [1], the “EC50 [nM] 0% HSA (cAMP, A7R5 rat aortic smooth muscle cells)” value (from here on “EC50 [nM] 0% HSA”) amounted to 1.01 nM.

B1: peptide of SEQ ID NO: 40 (peptide)
peptide: Ac-IVLSLD[dV]PIKLK([γGlu-C16 diacid])KILLEQEKQKKQREQAETN[Aib]QILAQV-NH2
SMILES: CC[C@H](C)[C@H](NC(C)=O)C(=O)N[C@H](C(=O)N[C@@H](CC(C)C)C(=O)N[C@@H](CO)C(=O)N[C@@H](CC(C)C)C(=O)N[C@@H](CC(=O)O)C(=O)N[C@@H](C(=O)N1CCC[C@H]1C(=O)N[C@H](C(=O)N[C@@H](CCCCN)C(=O)N[C@@H](CC(C)C)C(=O)N[C@@H](CCCCNC(=O)CC[C@H](NC(=O)CCCCCCCCCCCCCCC(=O)O)C(=O)O)C(=O)N[C@@H](CCCCN)C(=O)N[C@H](C(=O)N[C@@H](CC(C)C)C(=O)N[C@@H](CC(C)C)C(=O)N[C@@H](CCC(=O)O)C(=O)N[C@@H](CCC(N)=O)C(=O)N[C@@H](CCC(=O)O)C(=O)N[C@@H](CCCCN)C(=O)N[C@@H](CCC(N)=O)C(=O)N[C@@H](CCCCN)C(=O)N[C@@H](CCCCN)C(=O)N[C@@H](CCC(N)=O)C(=O)N[C@@H](CCCNC(=N)N)C(=O)N[C@@H](CCC(=O)O)C(=O)N[C@@H](CCC(N)=O)C(=O)N[C@@H](C)C(=O)N[C@@H](CCC(=O)O)C(=O)N[C@H](C(=O)N[C@@H](CC(N)=O)C(=O)NC(C)(C)C(=O)N[C@@H](CCC(N)=O)C(=O)N[C@H](C(=O)N[C@@H](CC(C)C)C(=O)N[C@@H](C)C(=O)N[C@@H](CCC(N)=O)C(=O)N[C@H](C(N)=O)C(C)C)[C@@H](C)CC)[C@@H](C)O)[C@@H](C)CC)[C@@H](C)CC)C(C)C)C(C)C
In the case of B1, in assay [1], the “EC50 [nM] 0% HSA” value stood at 0.59 nM.

B2: peptide of SEQ ID NO: 144 (peptide)
peptide: [NMeI]VLSLD[dV]PIKLK([γGlu-C18 diacid])KILLEQEKQKAQREQAETN[Aib]QILAQV-NH2
modifications: N-terminus assumed
SMILES: CC[C@H](C)[C@H](NC)C(=O)N[C@H](C(=O)N[C@@H](CC(C)C)C(=O)N[C@@H](CO)C(=O)N[C@@H](CC(C)C)C(=O)N[C@@H](CC(=O)O)C(=O)N[C@@H](C(=O)N1CCC[C@H]1C(=O)N[C@H](C(=O)N[C@@H](CCCCN)C(=O)N[C@@H](CC(C)C)C(=O)N[C@@H](CCCCNC(=O)CC[C@H](NC(=O)CCCCCCCCCCCCCCCCC(=O)O)C(=O)O)C(=O)N[C@@H](CCCCN)C(=O)N[C@H](C(=O)N[C@@H](CC(C)C)C(=O)N[C@@H](CC(C)C)C(=O)N[C@@H](CCC(=O)O)C(=O)N[C@@H](CCC(N)=O)C(=O)N[C@@H](CCC(=O)O)C(=O)N[C@@H](CCCCN)C(=O)N[C@@H](CCC(N)=O)C(=O)N[C@@H](CCCCN)C(=O)N[C@@H](C)C(=O)N[C@@H](CCC(N)=O)C(=O)N[C@@H](CCCNC(=N)N)C(=O)N[C@@H](CCC(=O)O)C(=O)N[C@@H](CCC(N)=O)C(=O)N[C@@H](C)C(=O)N[C@@H](CCC(=O)O)C(=O)N[C@H](C(=O)N[C@@H](CC(N)=O)C(=O)NC(C)(C)C(=O)N[C@@H](CCC(N)=O)C(=O)N[C@H](C(=O)N[C@@H](CC(C)C)C(=O)N[C@@H](C)C(=O)N[C@@H](CCC(N)=O)C(=O)N[C@H](C(N)=O)C(C)C)[C@@H](C)CC)[C@@H](C)O)[C@@H](C)CC)[C@@H](C)CC)C(C)C)C(C)C
For the molecule B2, in assay [1], the “EC50 [nM] 0% HSA” value stood at 0.06 nM.

As a reminder, the EC50 is the concentration that produces a half-maximal response. A higher EC50 goes with lower potency in that assay.
